Data on 23 compounds can be found in PubChem BioAssay (NCI).

A word on the TGI: it is the concentration giving total growth inhibition. High values mean less potent growth arrest, low ones more potent growth arrest.

Assay in all cases: DTP human tumour cell line panel, 48 h
For test [1], the system named is A498 renal.
In test [2] the test system is COLO 205 colon.
The subject of test [3] is HOP-92 NSCLC.
Test [4] relates to OVCAR-3 ovarian.
In test [5] the test system is OVCAR-4 ovarian.
The test system of test [6] is SF-295 CNS.
The subject of test [7] is SF-539 CNS.
Test [8] deals with SN12C renal.
Test [9] has as its system U251 CNS.
The subject of test [10] is SNB-19 CNS.

SMILES strings stand for the structures.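 96-well plates; 48 h exposure; 5 concentrations. Endpoints by linear interpolation between flanking doses. Not reached: highest tested concentration assigned. TGI: total growth inhibition.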

For the compound `Cc1c(-c2coc(-c3ccc(Cl)cc3)n2)c(=O)n(-c2ccccc2)n1C`, the TGI in test [1], in test [2], in [3], in test [4], in test [5] and in test [6] was over 100 µM each time. Moreover, the TGI in [7], in test [8] and in test [9] was over 100 µM in each case.

`Cc1nc(C(N)=S)sc1C(=O)CC(=O)C(=O)Nc1cccc(Cl)c1C`: the total growth inhibition concentration (TGI) in [1], in [3], in [4], in test [5], in test [6] and in test [7] was over 100 µM in each case. The TGI in [8], in test [10] and in test [9] was over 100 µM each time.

With `Clc1ncc(C(Cl)(Cl)Cl)nc1-c1ccccc1`, the TGI in [2] was determined as 4.11 µM; in test [3] it was 4.5 µM; in test [4], 3.1 µM; in test [5] it was 17 µM; in [6], 13.5 µM; in test [7], 5.05 µM. The TGI in [8] worked out at 8.57 µM; in [10] it was 3.19 µM; in test [9], 3.3 µM.

For the compound `Cc1cnc2[nH]c(-c3ccccc3)cc(=O)c2c1`, the TGI in test [2] was over 100 µM; in test [3], over 42.2 µM; in test [5], over 100 µM; in test [7], 0.0671 µM; in [8], over 14 µM; in test [10] it was over 100 µM. Moreover, the TGI in test [9] is over 22.1 µM.

With `CCOc1cc(C=O)ccc1O`, the TGI in test [2], in test [3], in [4], in test [5], in test [6] and in [7] was over 100 µM throughout. For the same compound, the TGI in [8], in [10] and in test [9] was over 100 µM each time.

For `Cc1ccc(C2=Nn3c(nc4sc(-c5ccccc5)cc4c3=O)SC2)cc1`, the TGI in test [1], in test [2], in test [3], in test [4], in test [5] and in [6] was over 100 µM each time. For the same compound, the concentration for total growth inhibition (TGI) in test [7], in test [8] and in [9] was over 100 µM each time.

Take `CCN(CC)c1ccc(C(=C2C=CC(=[N+](CC)CC)C=C2)c2ccccc2)cc1`: the TGI in test [2] is 0.136 µM; in [3] it was 0.0971 µM; in test [5], 0.488 µM; in test [6], 0.0664 µM; in [7] it was 0.269 µM; in test [8], 0.0878 µM. The TGI in test [10] is 0.179 µM; in test [9], 0.112 µM.

Take `COc1cc2c(c(OC)c1OC)-c1ccc(SC)c(=O)cc1[C@@H](NC(=O)c1ccc(C#N)cc1)CC2`: the concentration for total growth inhibition (TGI) in test [2] was under 0.01 µM; in test [3] it was 10.6 µM; in test [4] it was under 0.0108 µM; in [5] it was over 100 µM; in test [6], under 0.01 µM; in test [7], under 0.01 µM. The TGI is over 77.8 µM in [8] and under 0.0316 µM in test [9].

For the compound `COc1ccc(-c2c(C(C)=O)c(C)n(C3OC(CO)C(O)C(O)C3O)c(=S)c2C#N)cc1` (centres undefined), the TGI in test [2], in test [4], in test [5], in test [6], in [7] and in [8] was over 100 µM in each case. Besides, the TGI in test [10] was 33.6 µM; in test [9] it was over 100 µM.

With `COc1ccc(C[C@H]2COC(=O)[C@@H]2Cc2cc(OC)c(OC)c(OC)c2)cc1OC`, the TGI in test [2], in [3], in test [4], in test [5], in test [6] and in test [7] was over 100 µM in each case. The total growth inhibition concentration (TGI) in test [8], in test [10] and in test [9] was over 100 µM throughout.

As to `CC(=O)Nc1ccc(C(=O)N2N=C(C)/C(=C/c3cccc(O)c3)C2=O)cc1`, the TGI in test [2], in test [4], in test [5], in [6], in [7] and in test [8] was over 100 µM each time. The TGI in test [10] and in test [9] was over 100 µM each time.

For `C=C1c2nc3ccccc3n2C=C(c2ccccc2)N1c1ccc(OC)cc1`, the total growth inhibition concentration (TGI) in test [1] is over 100 µM; in [2], over 100 µM; in test [3] it was over 100 µM; in test [4], over 100 µM; in test [5], over 100 µM; in [6] it was 25.3 µM. The TGI in [7] was 26.9 µM; in test [8], over 100 µM; in [9], over 100 µM.

Consider `COC(=O)c1cc2c3c(c(C(C)=O)c(OC)c2[nH]1)NCC3`, for which the TGI in [1], in test [2], in [4], in test [6], in [7] and in [8] was over 50 µM throughout. Further, the TGI in test [10] and in [9] was over 50 µM in each case.

Consider `Cc1[nH]c(=O)nc(N/N=C/c2ccc(O)cc2)c1C(=O)Nc1ccc(Cl)cc1`, for which the total growth inhibition concentration (TGI) in test [1], in [2], in test [4], in [5], in test [7] and in test [8] was over 100 µM throughout. Further, the TGI in [10] and in test [9] was over 100 µM throughout.

`COC(=O)CCc1ccc2c(c1)CC1(C2)Cc2ccc(CCC(=O)OC)cc2C1`: the TGI in test [1] is over 100 µM; in test [2], over 100 µM; in [3], 99.7 µM; in test [4], over 100 µM; in [5] it was over 100 µM; in test [6], over 100 µM. The TGI in [7], in test [8] and in [9] was over 100 µM in each case.

In the case of `c1csc(-c2ccc(-c3ccc(-c4cccs4)s3)s2)c1`, the TGI in [1], in test [2], in [4], in [5], in [6] and in [7] was over 100 µM each time. Moreover, the total growth inhibition concentration (TGI) in [8], in [10] and in test [9] was over 100 µM throughout.

Turning to `Cc1cccc(N2CCN(S(=O)(=O)c3ccc(Cl)cc3)C2=N)c1C`, the TGI in test [1], in [2], in [6], in test [7], in test [8] and in [10] was over 100 µM in each case. The total growth inhibition concentration (TGI) in [9] is over 100 µM.

Consider `CN(C)CCNC(=O)c1cccc2c(NC(CS)C(=O)O)c3ccccc3nc12` (centres undefined), for which the TGI was 16 µM in test [2]; over 100 µM in test [3]; over 100 µM in [4]; over 100 µM in test [5]; 28.9 µM in test [6]; 18.1 µM in test [7]. Besides, the TGI in [8] is 24 µM; in [10] it was 50.9 µM; in [9], over 100 µM.

Regarding `COC(=O)C(=O)C(C(=O)C(=O)Nc1ccccc1C(N)=O)c1nc2ccc(C(=O)c3ccccc3)cc2[nH]c1=O` (centres undefined), the TGI in [1], in test [2], in test [5], in test [6], in test [7] and in test [8] was over 100 µM throughout. Also, the TGI in test [10] and in [9] was over 100 µM in each case.

For the compound `CCCCC(=C=C1CCCCC1O)C1CCCN1C(=O)OC(C)(C)C` (centres undefined), the total growth inhibition concentration (TGI) in test [2] was found to be 43.8 µM; in test [3] it was 26 µM; in [4], 29.1 µM; in test [5] it was 27.4 µM; in test [6], 28 µM; in [7], 35.5 µM. In addition, the TGI in test [8] turned out to be 31.7 µM; in test [10], 31.1 µM; in [9], 29.4 µM.

In the case of `COC(=O)C(Cc1ccccc1)NC(=O)CCCNC(=O)OCc1ccccc1` (centres undefined), the TGI in test [2], in test [3], in [4], in [5], in [6] and in test [8] was over 100 µM in each case. The TGI in test [10] and in test [9] was over 100 µM throughout.

As to `COc1ccccc1NC(=O)C(=O)C1C(=O)Nc2ccccc2S1=O` (centres undefined), the TGI in test [1], in test [2], in test [4], in test [5], in test [6] and in [7] was over 100 µM throughout. The TGI in test [8], in test [10] and in test [9] was over 100 µM throughout.

In the case of `CCOc1ccc(NC(=S)/N=C/C(C(=O)Nc2ccccc2C)=C(\C)O)cc1`, the TGI in test [2], in test [4], in [5], in test [6], in test [7] and in [8] was over 100 µM throughout. The TGI in test [10] and in test [9] was over 100 µM in each case.
